Laboratory results: patent US20250263408A1 (Uniquest Pty Ltd, priority 2022, published 2025)

How the values were obtained:
Syk = biological target: T1, Syk (Homo sapiens, UniProt P43405); assay: Syk Biochemical Assay (ADP-Glo luminescence); settings: ATP 40 μM final, 60 minutes, read-out: SYK Biochem IC50
T1 construct: purchased Promega
Procedure: Compounds were serially diluted in 100% DMSO, prior to an intermediate dilution in water. In a low volume white 384-well Proxiplate (Perkin Elmer), 1 μL of compound (0.4% final DMSO) was added to 3 μL of 10 ng/well Syk (Promega) and 0.2 mg/mL Poly-E4Y1 substrate (Promega) in assay buffer (final 40 mM Tris-HCl pH 7.4, 20 mM MgCl2, 0.1 mg/mL BSA) for 5 minutes. The reaction was initiated by addition of 1 μL of ATP (40 μM final) and allowed to proceed for 60 minutes at room temperature. The reaction was terminated by addition of 5 μL of ADP-Glo Reagent Mix (Promega) containing 1 mM MgCl2 for 45 minutes at room temperature. 10 μL of Kinase Detection Reagent (Promega) was added and incubated for 10 minutes at room temperature, before luminescence was measured using an Ensight Multimode Plate Reader (Perkin Elmer).

Ba/F3-Syk cells = biological target: T2, Ba/F3-Syk cells (Homo sapiens, UniProt P43405); assay: Ba/F3 Proliferation Assay, Ba/F3-Syk cells (Resazurin); assay type: cell-based; settings: 48-hour incubation
T2 construct: fused on or other part: Possible but unprinted fusion partner: TEL (ETV6), the usual partner for Ba/F3 lines transformed by Syk; Nothing on a partner is printed

[1] = system: Ba/F3-WT (wild type) cells; assay: Ba/F3 Proliferation Assay, Ba/F3-WT (wild type) cells with mIL-3 (Resazurin); assay type: cell-based; settings: Mus musculus, BaF3, 48 h, Ba/F3-WT cells +mIL-3, 48-hour incubation

FC(F)n1cc(-c2cc3ncccc3c(OC[C@@H]3CNCCO3)n2)cn1 [Compound 2.15, 7-[1-(difluoromethyl)-1H-pyrazol-4-yl]-5-{[(2S)-morpholin-2-yl]methoxy}-1,6-naphthyridine]
IC50 (Syk): 74.8 nM | EC50 (Ba/F3-Syk cells): 139 nM | EC50 [1]: 2890 nM

CC1(C)CNC[C@@H](COc2nc(-c3ccn(C4COC4)c3)cc3ncccc23)O1 [Compound 6.25, 5-{[(2S)-6,6-dimethylmorpholin-2-yl]methoxy}-7-[1-(oxetan-3-yl)-1H-pyrrol-3-yl]-1,6-naphthyridine]
IC50 (Syk): 20.5 nM | EC50 (Ba/F3-Syk cells): 8.6 nM | EC50 [1]: 1760 nM

C[C@@H]1NCCO[C@@H]1COc1nc(-c2cnn(C3(C)CC3)c2)cc2ncccc12 [Compound 13.16, 7-[1-(1-methylcyclopropyl)-1H-pyrazol-4-yl]-5-{[(2S,3S)-3-methylmorpholin-2-yl]methoxy}-1,6-naphthyridine]
IC50 (Syk): 31.7 nM | EC50 (Ba/F3-Syk cells): 43 nM | EC50 [1]: 518 nM

CC(C)(C)n1cc(-c2cc3ncccc3c(OC[C@@H]3CNC[C@H](C4CC4)O3)n2)cn1 [Compound 2.102, 7-(1-tert-butyl-1H-pyrazol-4-yl)-5-{[(2S,6S)-6-cyclopropylmorpholin-2-yl]methoxy}-1,6-naphthyridine]
IC50 (Syk): 12.9 nM | EC50 (Ba/F3-Syk cells): 11.7 nM | EC50 [1]: 1070 nM

CC(C)(C)[C@H]1CNC[C@@H](COc2nc(-c3cnn(C(C)(C)C)c3)cc3ncccc23)O1 [Compound 2.100, 7-(1-tert-butyl-1H-pyrazol-4-yl)-5-{[(2S,6S)-6-tert-butylmorpholin-2-yl]methoxy}-1,6-naphthyridine]
IC50 (Syk): 278 nM | EC50 (Ba/F3-Syk cells): 362 nM | EC50 [1]: 3010 nM

Cn1ccc(-c2cc(OC[C@@H]3CNCC4(CC4)O3)c3cccnc3c2)c1 [Compound 3.17, 7-(1-methyl-1H-pyrrol-3-yl)-5-{[(5S)-4-oxa-7-azaspiro[2.5]octan-5-yl]methoxy}quinoline]
IC50 (Syk): 43.7 nM | EC50 (Ba/F3-Syk cells): 51.8 nM | EC50 [1]: 2220 nM

CC(C)(C)n1cc(-c2cc3ncccc3c(OC[C@@H]3CNCC4(COC4)O3)n2)cn1 [Compound 13.15, 7-(1-tert-butyl-1H-pyrazol-4-yl)-5-{[(6S)-2,5-dioxa-8-azaspiro[3.5]nonan-6-yl]methoxy}-1,6-naphthyridine]
IC50 (Syk): 19.8 nM | EC50 (Ba/F3-Syk cells): 47.2 nM | EC50 [1]: 1910 nM

CCn1cc(-c2cc3ncccc3c(OC[C@@H]3CNCCO3)n2)cn1 [Compound 2.6, 7-(1-ethyl-1H-pyrazol-4-yl)-5-{[(2S)-morpholin-2-yl]methoxy}-1,6-naphthyridine]
IC50 (Syk): 15.6 nM | EC50 (Ba/F3-Syk cells): 57.2 nM | EC50 [1]: 1530 nM

C[C@@H]1CNC[C@@H](COc2cc(-c3ccn(C)c3)cc3ncccc23)O1 [Compound 3.24, 7-(1-methyl-1H-pyrrol-3-yl)-5-{[(2S,6R)-6-methylmorpholin-2-yl]methoxy}quinoline]
IC50 (Syk): 16.4 nM | EC50 (Ba/F3-Syk cells): 28.2 nM | EC50 [1]: 2260 nM

CC(C)n1ccc(-c2cc(OC[C@@H]3CNCCCO3)c3nccnc3c2)c1 [Compound 8.10, 5-{[(2S)-1,4-oxazepan-2-yl]methoxy}-7-[1-(propan-2-yl)-1H-pyrrol-3-yl]quinoxaline]
IC50 (Syk): 11.8 nM | EC50 (Ba/F3-Syk cells): 10.7 nM | EC50 [1]: 1620 nM

CC(C)(C)n1ccc(-c2cc3ncccc3c(OC[C@@H]3CNCCCO3)n2)c1 [Compound 2.69, 7-(1-tert-butyl-1H-pyrrol-3-yl)-5-{[(2S)-1,4-oxazepan-2-yl]methoxy}-1,6-naphthyridine]
IC50 (Syk): 30.1 nM | EC50 (Ba/F3-Syk cells): 13.5 nM | EC50 [1]: > 10000 nM

FC(F)Cn1ccc(-c2cc(OC[C@@H]3CNCC4(CCC4)O3)c3nccnc3c2)c1 [Compound 8.19, 7-[1-(2,2-difluoroethyl)-1H-pyrrol-3-yl]-5-{[(6S)-5-oxa-8-azaspiro[3.5]nonan-6-yl]methoxy}quinoxaline]
IC50 (Syk): 6.5 nM | EC50 (Ba/F3-Syk cells): 6.4 nM | EC50 [1]: 872 nM

CC(C)n1cc(-c2cc(OC[C@@H]3CNCCO3)c3cccnc3c2)cn1 [Compound 3.4, 5-{[(2S)-morpholin-2-yl]methoxy}-7-[1-(propan-2-yl)-1H-pyrazol-4-yl]quinoline]
IC50 (Syk): 29.3 nM | EC50 (Ba/F3-Syk cells): 47.4 nM | EC50 [1]: 926 nM

CC1(C)CNC[C@@H](COc2nc(-c3ccn(CC(F)F)c3)cc3ncccc23)O1 [Compound 6.13, 7-[1-(2,2-difluoroethyl)-1H-pyrrol-3-yl]-5-{[(2S)-6,6-dimethylmorpholin-2-yl]methoxy}-1,6-naphthyridine]
IC50 (Syk): 14.6 nM | EC50 (Ba/F3-Syk cells): 21.8 nM | EC50 [1]: 2050 nM

C[C@@H](Oc1nc(-c2ccn(CC(F)F)c2)cc2ncccc12)[C@@H]1CNCCO1 [Compound 6.30, 7-[1-(2,2-difluoroethyl)-1H-pyrrol-3-yl]-5-[(1R)-1-[(2S)-morpholin-2-yl]ethoxy]-1,6-naphthyridine]
IC50 (Syk): 14.1 nM | EC50 (Ba/F3-Syk cells): 27.7 nM | EC50 [1]: 1390 nM

COCCn1ccc(-c2cc(OC[C@@H]3CNCC(C)(C)O3)c3nccnc3c2)c1 [Compound 8.4, 5-{[(2S)-6,6-dimethylmorpholin-2-yl]methoxy}-7-[1-(2-methoxyethyl)-1H-pyrrol-3-yl]quinoxaline]
IC50 (Syk): 7.4 nM | EC50 (Ba/F3-Syk cells): 8.2 nM | EC50 [1]: 645 nM

Cc1cc(-c2cc3ncccc3c(OC[C@@H]3CNCCO3)n2)cs1 [Compound 2.18, 7-(5-methylthiophen-3-yl)-5-{[(2S)-morpholin-2-yl]methoxy}-1,6-naphthyridine]
IC50 (Syk): 47.2 nM | EC50 (Ba/F3-Syk cells): 78.2 nM | EC50 [1]: 1860 nM

CC(C)(C)n1cc(-c2cc3ncccc3c(OC[C@@H]3CNCC4(CC4)O3)n2)cn1 [Compound 2.63, 7-(1-tert-butyl-1H-pyrazol-4-yl)-5-{[(5S)-4-oxa-7-azaspiro[2.5]octan-5-yl]methoxy}-1,6-naphthyridine]
IC50 (Syk): 26.4 nM | EC50 (Ba/F3-Syk cells): 20.6 nM | EC50 [1]: 2870 nM

CC(C)n1ccc(-c2cc(OC[C@@H]3CNCC4(CCC4)O3)c3nccnc3c2)c1 [Compound 8.17, 5-{[(6S)-5-oxa-8-azaspiro[3.5]nonan-6-yl]methoxy}-7-[1-(propan-2-yl)-1H-pyrrol-3-yl]quinoxaline]
IC50 (Syk): 14.7 nM | EC50 (Ba/F3-Syk cells): 4.3 nM | EC50 [1]: 684 nM

CC(C)n1ccc(-c2cc3ncccc3c(OC[C@@H]3CNCC4(CC4)O3)n2)c1 [Compound 6.22, 5-{[(5S)-4-oxa-7-azaspiro[2.5]octan-5-yl]methoxy}-7-[1-(propan-2-yl)-1-H-pyrrol-3-yl]-1,6-naphthyridine]
IC50 (Syk): 14.3 nM | EC50 (Ba/F3-Syk cells): 11.2 nM | EC50 [1]: 2090 nM

Cn1cc(-c2cc3ncccc3c(OCC3CNCCO3)n2)cn1 (stereo not drawn) [Compound 2.1, 7-(1-methyl-1H-pyrazol-4-yl)-5-[(morpholin-2-yl)methoxy]-1,6-naphthyridine]
IC50 (Syk): 50.8 nM | EC50 (Ba/F3-Syk cells): 92.8 nM | EC50 [1]: 1250 nM

Cn1cc(-c2cc3ncccc3c(OC[C@@H]3CNCCO3)n2)cn1 [Compound 2.3, 7-(1-methyl-1H-pyrazol-4-yl)-5-{[(2S)-morpholin-2-yl]methoxy}-1,6-naphthyridine]
IC50 (Syk): 39 nM | EC50 (Ba/F3-Syk cells): 105 nM | EC50 [1]: 2350 nM

CCc1ccnc2cc(-c3cnn(C(C)(C)C)c3)nc(OC[C@@H]3CNCC(C)(C)O3)c12 [Compound 14.14, 7-(1-tert-butyl-1H-pyrazol-4-yl)-5-{[(2S)-6,6-dimethylmorpholin-2-yl]methoxy}-4-ethyl-1,6-naphthyridine]
IC50 (Syk): 33.6 nM | EC50 (Ba/F3-Syk cells): 20.6 nM | EC50 [1]: 1100 nM

CC(C)(C)n1cc(-c2cc3ncccc3c(OC[C@@H]3CNCCCO3)n2)cn1 [Compound 2.49, 7-(1-tert-butyl-1H-pyrazol-4-yl)-5-{[(2S)-1,4-oxazepan-2-yl]methoxy}-1,6-naphthyridine]
IC50 (Syk): 71 nM | EC50 (Ba/F3-Syk cells): 47.1 nM | EC50 [1]: 3050 nM

COCn1cc(-c2cc3ncccc3c(OC[C@@H]3CNCCO3)n2)cn1 [Compound 2.9, 7-[1-(methoxymethyl)-1H-pyrazol-4-yl]-5-{[(2S)-morpholin-2-yl]methoxy}-1,6-naphthyridine]
IC50 (Syk): 40.6 nM | EC50 (Ba/F3-Syk cells): 187 nM | EC50 [1]: 2360 nM

CC(C)(C)n1cc(-c2cc3ncccc3c(OC[C@@H]3CNC[C@@H](C(F)F)O3)n2)cn1 [Compound 2.99, 7-(1-tert-butyl-1-pyrazol-4-yl)-5-{[(2S,6S)-6-(difluoromethyl)morpholin-2-yl]methoxy}-1,6-naphthyridine]
IC50 (Syk): 21.4 nM | EC50 (Ba/F3-Syk cells): 17.8 nM | EC50 [1]: 1010 nM

CC(C)(C)n1cc(-c2cc3ncccc3c(OC[C@@H]3CNC[C@H](C(F)(F)F)O3)n2)cn1 [Compound 13.13, 7-(1-tert-butyl-1H-pyrazol-4-yl)-5-([(2S,6R)-6-(trifluoromethyl)morpholin-2-yl]methoxy}-1,6-naphthyridine]
IC50 (Syk): 16.3 nM | EC50 (Ba/F3-Syk cells): 41.8 nM | EC50 [1]: 1780 nM

Cn1cc(-c2cc3ncccc3c(OC[C@@H]3CNCC(C)(C)O3)n2)cn1 [Compound 2.32, 5-{[(2S)-6,6-dimethylmorpholin-2-yl]methoxy}-7-(1-methyl-1H-pyrazol-4-yl)-1,6-naphthyridine]
IC50 (Syk): 23.5 nM | EC50 (Ba/F3-Syk cells): 48.4 nM | EC50 [1]: 4760 nM

CC(C)(C)n1cc(-c2cc3ncccc3c(OC[C@@H]3CNCCO3)n2)cn1 [Compound 2.10, 7-(1-tert-butyl-1H-pyrazol-4-yl)-5-{[(2S)-morpholin-2-yl]methoxy}-1,6-naphthyridine]
IC50 (Syk): 14.5 nM | EC50 (Ba/F3-Syk cells): 39.9 nM | EC50 [1]: 2780 nM
